Experimental data reported in the supplement of paper PMC5908809.

Columns and labels:
[1] = system: normal NK cells expanded with K562-aAPC; experiment: percent inhibition of viability; higher = more inhibition; conditions: 72 h, IL-2 2.5 ng/mL
Procedure: (§1)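 Drug sensitivity and resistance testing on K562-aAPC-expanded normal NK cells: 5 concentrations (10-fold steps over a 10,000-fold range), 72 h at 37 °C, viability by CellTiter-Glo normalised to DMSO and benzethonium chloride controls; DSS from the fitted curve.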

DERL-7 (IL-2 2.5 ng/mL) [2] = experiment: as above; conditions: 72 h
IMC-1 (IL-2 20 ng/mL) [3] = experiment: as above; conditions: 72 h
KAI3 (IL-2 2.5 ng/mL) [4] = experiment: as above; conditions: 72 h
KHYG-1 (IL-2 2.5 ng/mL) [5] = experiment: as above; conditions: 72 h
NK-92 (IL-2 2.5 ng/mL) [6] = experiment: as above; conditions: 72 h
NK-YS (IL-2 2.5 ng/mL) [7] = experiment: as above; conditions: 72 h
NKL (IL-2 2.5 ng/mL) [8] = experiment: as above; conditions: 72 h
SNK-6 (IL-2 2.5 ng/mL) [9] = experiment: as above; conditions: 72 h
YT (IL-2 2.5 ng/mL) [10] = experiment: as above; conditions: 72 h
[11] = system: normal primary NK cells, pool 1 (3 donors) (IL-2 2.5 ng/mL); experiment: as above; conditions: 72 h
[12] = system: normal primary NK cells, pool 1 (3 donors), resting (IL-2 0 ng/mL); experiment: as above; conditions: 72 h
[13] = system: normal primary NK cells, pool 2 (3 donors) (IL-2 2.5 ng/mL); experiment: as above; conditions: 72 h
[14] = system: normal primary NK cells, pool 3 (3 donors) (IL-2 2.5 ng/mL); experiment: as above; conditions: 72 h
[15] = system: normal NK cells expanded with K562-aAPC; experiment: drug sensitivity score (DSS) (DSS units); higher = more sensitive; extreme values may be limits of the assay; conditions: 72 h; IL-2 2.5 ng/mL
Procedure: as §1

DERL-7 (IL-2 2.5 ng/mL) [16] = experiment: as above; conditions: 72 h
IMC-1 (IL-2 20 ng/mL) [17] = experiment: as above; conditions: 72 h
KAI3 (IL-2 2.5 ng/mL) [18] = experiment: as above; conditions: 72 h
KHYG-1 (IL-2 2.5 ng/mL) [19] = experiment: as above; conditions: 72 h
NK-92 (IL-2 2.5 ng/mL) [20] = experiment: as above; conditions: 72 h
NK-YS (IL-2 2.5 ng/mL) [21] = experiment: as above; conditions: 72 h
NKL (IL-2 2.5 ng/mL) [22] = experiment: as above; conditions: 72 h
SNK-6 (IL-2 2.5 ng/mL) [23] = experiment: as above; conditions: 72 h
YT (IL-2 2.5 ng/mL) [24] = experiment: as above; conditions: 72 h
[25] = system: normal primary NK cells, pool 1 (3 donors) (IL-2 2.5 ng/mL); experiment: as above; conditions: 72 h
[26] = system: normal primary NK cells, pool 1 (3 donors), resting (IL-2 0 ng/mL); experiment: as above; conditions: 72 h
[27] = system: normal primary NK cells, pool 2 (3 donors) (IL-2 2.5 ng/mL); experiment: as above; conditions: 72 h
[28] = system: normal primary NK cells, pool 3 (3 donors) (IL-2 2.5 ng/mL); experiment: as above; conditions: 72 h

CCCc1cc(C)[nH]c(=O)c1CNC(=O)c1cc(-c2ccnc(N3CCN(C)CC3)c2)cc2c1cnn2C(C)C [GSK343] (max concentration tested 10000 nM)
percent inhibition of viability [%]
Conditions | 1 nM | 10 nM | 100 nM | 1000 nM | 10000 nM
DERL-7 (IL-2 2.5 ng/mL) [2] | 3.94 | -4.82 | 3.13 | 8.76 | 96.6
IMC-1 (IL-2 20 ng/mL) [3] | -6.79 | -3.69 | -6.5 | -9.82 | 99.4
KAI3 (IL-2 2.5 ng/mL) [4] | -6.07 | -1.68 | -2.65 | 8.26 | 99.1
KHYG-1 (IL-2 2.5 ng/mL) [5] | 0.04 | 1.72 | -6.82 | 3.86 | 99.8
NK-92 (IL-2 2.5 ng/mL) [6] | -15.4 | -9.54 | -9.12 | -0.4 | 98.1
NK-YS (IL-2 2.5 ng/mL) [7] | -5.74 | -3.63 | -4.33 | 4.65 | 101
NKL (IL-2 2.5 ng/mL) [8] | -9.45 | -14.8 | -10.7 | -3.16 | 99.2
SNK-6 (IL-2 2.5 ng/mL) [9] | -12.3 | 5.94 | -7.63 | -6.91 | 99.4
YT (IL-2 2.5 ng/mL) [10] | -0.53 | -1.05 | -6.88 | 3.69 | 99
[1] | -1.65 | -5.79 | -7.46 | -5.85 | 99.2
[11] | 2.11 | -6.04 | -3.32 | 7.91 | 93.1
[12] | -0.38 | -4.24 | -14.9 | 10.5 | 92.6
[13] | -8.31 | -4.46 | -6.41 | -0.99 | -0.1
[14] | -4.17 | -3.24 | -2 | -6.83 | 59.2

Conditions | drug sensitivity score
DERL-7 (IL-2 2.5 ng/mL) [16] | 6.76
IMC-1 (IL-2 20 ng/mL) [17] | 4.86
KAI3 (IL-2 2.5 ng/mL) [18] | 6.8
KHYG-1 (IL-2 2.5 ng/mL) [19] | 6.07
NK-92 (IL-2 2.5 ng/mL) [20] | 5.45
NK-YS (IL-2 2.5 ng/mL) [21] | 6.26
NKL (IL-2 2.5 ng/mL) [22] | 5.27
SNK-6 (IL-2 2.5 ng/mL) [23] | 5.02
YT (IL-2 2.5 ng/mL) [24] | 6
[15] | 5.07
[25] | 6.41
[26] | 6.86
[27] | 0
[28] | 2.74

Cc1cccc(-c2nn3c(c2-c2ccnc4ccc(C(N)=O)cc24)CCC3)n1 [Galunisertib] (max concentration tested 1000 nM)
percent inhibition of viability [%]
Conditions | 0.1 nM | 1 nM | 10 nM | 100 nM | 1000 nM
DERL-7 (IL-2 2.5 ng/mL) [2] | 5.62 | 1.68 | 4.85 | -1.77 | 1.92
IMC-1 (IL-2 20 ng/mL) [3] | -7.13 | -0.55 | -5.27 | -8.99 | -4.14
KAI3 (IL-2 2.5 ng/mL) [4] | -4.52 | 0.48 | -2.74 | -1.09 | -2.65
KHYG-1 (IL-2 2.5 ng/mL) [5] | -4.42 | -0.98 | -7.17 | 0.3 | -1.95
NK-92 (IL-2 2.5 ng/mL) [6] | 6.42 | -19.6 | -7 | -11.1 | -5.09
NK-YS (IL-2 2.5 ng/mL) [7] | -4.82 | -4.05 | -5.75 | -3.29 | -5.06
NKL (IL-2 2.5 ng/mL) [8] | -14.8 | -16.4 | -19.5 | -16.8 | -23.6
SNK-6 (IL-2 2.5 ng/mL) [9] | 4.83 | 20.7 | 0 | -0.11 | -19.9
YT (IL-2 2.5 ng/mL) [10] | -3.06 | -2.63 | -3.58 | 1.78 | 1.58
[1] | -0.13 | -4.95 | -1.88 | -4.21 | -16.8
[11] | 0.38 | -7.01 | -9.1 | -2.92 | -15.2
[12] | -3.02 | -1.34 | -8.83 | 11.9 | 15
[13] | -8.56 | -7.94 | -11.5 | -15 | -20.2
[14] | -11 | -5.65 | -10 | -14.2 | -19.7

Conditions | drug sensitivity score
DERL-7 (IL-2 2.5 ng/mL) [16] | 0
IMC-1 (IL-2 20 ng/mL) [17] | 0
KAI3 (IL-2 2.5 ng/mL) [18] | 0
KHYG-1 (IL-2 2.5 ng/mL) [19] | 0
NK-92 (IL-2 2.5 ng/mL) [20] | 0
NK-YS (IL-2 2.5 ng/mL) [21] | 0
NKL (IL-2 2.5 ng/mL) [22] | 0
SNK-6 (IL-2 2.5 ng/mL) [23] | 0
YT (IL-2 2.5 ng/mL) [24] | 0
[15] | 0
[25] | 0
[26] | 1.02
[27] | 0
[28] | 0

NC(=O)NO [Hydroxyurea] (max concentration tested 100000 nM)
percent inhibition of viability [%]
Conditions | 10 nM | 100 nM | 1000 nM | 10000 nM | 100000 nM
DERL-7 (IL-2 2.5 ng/mL) [2] | 2.03 | -0.08 | 8.03 | -3.4 | 12.6
IMC-1 (IL-2 20 ng/mL) [3] | -6.14 | -2.56 | -2.39 | -0.1 | 9.95
KAI3 (IL-2 2.5 ng/mL) [4] | 24.5 | 13.1 | 12.7 | 20.9 | 51.8
KHYG-1 (IL-2 2.5 ng/mL) [5] | -10.9 | -7.34 | -3.16 | 8.85 | 17.1
NK-92 (IL-2 2.5 ng/mL) [6] | 6.26 | 6.63 | 2.07 | 31.3 | 48.5
NK-YS (IL-2 2.5 ng/mL) [7] | -0.41 | -2.69 | -1.46 | 3.98 | 29.3
NKL (IL-2 2.5 ng/mL) [8] | 4.79 | -0.36 | 15 | 24.1 | 48.3
SNK-6 (IL-2 2.5 ng/mL) [9] | 15.2 | -7.82 | -13.1 | -12.9 | 1.36
YT (IL-2 2.5 ng/mL) [10] | -10.8 | -9.74 | -3.92 | 0.46 | 14.2
[1] | 2.1 | -5.76 | -2.1 | 8.98 | 49.1
[11] | -2.1 | 5.26 | 3.61 | -8.28 | 4.04
[12] | 15.8 | 15.8 | 15.4 | 15.8 | 15.6
[13] | 1.52 | 0.13 | 10.8 | 4.35 | 13.4
[14] | 6.75 | 1.29 | 8.4 | -5.82 | 7.32

Conditions | drug sensitivity score
DERL-7 (IL-2 2.5 ng/mL) [16] | 0.03
IMC-1 (IL-2 20 ng/mL) [17] | 0
KAI3 (IL-2 2.5 ng/mL) [18] | 8.49
KHYG-1 (IL-2 2.5 ng/mL) [19] | 1.16
NK-92 (IL-2 2.5 ng/mL) [20] | 6.31
NK-YS (IL-2 2.5 ng/mL) [21] | 1.89
NKL (IL-2 2.5 ng/mL) [22] | 6.01
SNK-6 (IL-2 2.5 ng/mL) [23] | 0
YT (IL-2 2.5 ng/mL) [24] | 0.2
[15] | 4.07
[25] | 0
[26] | 4.95
[27] | 0.1
[28] | 0
